Measured values reported in patent US12077503B2, “Substituted cyclic amides and their use as herbicides” (FMC CORPORATION, priority 2015, dated 2024).

Assays:
Assay type in all cases: in vivo
[1] = test system: barnyardgrass (Echinochloa crus-galli); experiment: Test G Pre-Emergence Protocol; conditions: Echinochloa crus-galli, pre-emergence, 312 h, evaluated after 13 days
Procedure, shortened: (§1)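 Pots of seeds in standard soil were grown for one day in a glasshouse (24/16 °C day/night, 14 h light, 65% humidity), then sprayed with compound in acetone/water 50:50 with 0.5% Tween 20 at 15.625, 62.5 or 250 g/ha. Damage was scored after 13 days on a 0 (none) to 100 (total) scale.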

[2] = test system: corn (Zea mays); experiment: Test G Pre-Emergence Protocol; conditions: Zea mays, pre-emergence, 312 h, evaluated after 13 days
Procedure, shortened: as §1

[3] = test system: giant foxtail (Setaria faberi); experiment: Test G Pre-Emergence Protocol; conditions: Setaria faberi, pre-emergence, 312 h, evaluated after 13 days
Procedure, shortened: as §1

[4] = test system: ivy-leaved morning glory (Ipomoea hederacea); experiment: Test G Pre-Emergence Protocol; conditions: Ipomoea, pre-emergence, 312 h, evaluated after 13 days
Procedure, shortened: as §1

[5] = test system: redroot pigweed (Amaranthus retroflexus); experiment: Test G Pre-Emergence Protocol; conditions: Amaranthus retroflexus, pre-emergence, 312 h, evaluated after 13 days
Procedure, shortened: as §1

[6] = test system: velvetleaf (Abutilon theophrasti); experiment: Test G Pre-Emergence Protocol; conditions: Abutilon theophrasti, pre-emergence, 312 h, evaluated after 13 days
Procedure, shortened: as §1

[7] = test system: barnyardgrass (Echinochloa crus-galli); experiment: Test G Post-Emergence Protocol; conditions: Echinochloa crus-galli, post-emergence, 312 h, read-out: Barnyardgrass damage rating
Procedure, shortened: (§2)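 A glasshouse post-emergence test: 8-day-old plants sprayed at 15.625, 62.5 or 250 g/ha, then grown at 24/16 °C day/night with 14 h light and 65% humidity. Damage rated 13 days later, 0–100.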

[8] = test system: corn (Zea mays); experiment: Test G Post-Emergence Protocol; conditions: Zea mays, post-emergence, 312 h, read-out: Corn damage rating
Procedure, shortened: as §2

[9] = test system: giant foxtail (Setaria faberi); experiment: Test G Post-Emergence Protocol; conditions: Setaria faberi, post-emergence, 312 h, read-out: Foxtail, Giant damage rating
Procedure, shortened: as §2

[10] = test system: ivy-leaved morning glory (Ipomoea hederacea); experiment: Test G Post-Emergence Protocol; conditions: Ipomoea, post-emergence, 312 h, read-out: Morningglory, Ivy-leaved damage rating
Procedure, shortened: as §2

[11] = test system: redroot pigweed (Amaranthus retroflexus); experiment: Test G Post-Emergence Protocol; conditions: Amaranthus retroflexus, post-emergence, 312 h, read-out: Pigweed, Redroot damage rating
Procedure, shortened: as §2

[12] = test system: velvetleaf (Abutilon theophrasti); experiment: Test G Post-Emergence Protocol; conditions: Abutilon theophrasti, post-emergence, 312 h, read-out: Velvetleaf damage rating
Procedure, shortened: as §2

[13] = 15.625 g ai/ha, evaluated after 13 days (100=total damage to plant; 0=no damage to plant)
[14] = 62.5 g ai/ha, evaluated after 13 days, 100=total damage to plant, 0=no damage to plant
[15] = 250 g ai/ha, evaluated after 13 days, 100=total damage to plant, 0=no damage to plant

SMILES: COc1c(F)cc(C2CN(C)C(=O)C2C(=O)Nc2cccc(F)c2F)cc1F (stereo not drawn) [Compound 1702]
- pest or weed control at 15.625 g/ha ([1]; 15.625 g ai/ha, read-out: Barnyardgrass damage rating (100=total damage to plant; 0=no damage to plant)): 50%
- pest or weed control at 62.5 g/ha ([1]; 62.5 g ai/ha, 100=total damage to plant, 0=no damage to plant, read-out: Barnyardgrass damage rating): 70%
- pest or weed control at 250 g/ha ([1]; 250 g ai/ha, read-out: Barnyardgrass damage rating (100=total damage to plant; 0=no damage to plant)): 90%
- plant injury at 15.625 g/ha ([2]; 15.625 g ai/ha, read-out: Corn damage rating (100=total damage to plant; 0=no damage to plant)): 20%
- plant injury at 62.5 g/ha ([2]; 62.5 g ai/ha, 100=total damage to plant, 0=no damage to plant, read-out: Corn damage rating): 70%
- plant injury at 250 g/ha ([2]; 250 g ai/ha, read-out: Corn damage rating (100=total damage to plant; 0=no damage to plant)): 90%
- pest or weed control at 15.625 g/ha ([3]; 15.625 g ai/ha, read-out: Foxtail, Giant damage rating (100=total damage to plant; 0=no damage to plant)): 70%
- pest or weed control at 62.5 g/ha ([3]; 62.5 g ai/ha, 100=total damage to plant, 0=no damage to plant, read-out: Foxtail, Giant damage rating): 80%
- pest or weed control at 250 g/ha ([3]; 250 g ai/ha, read-out: Foxtail, Giant damage rating (100=total damage to plant; 0=no damage to plant)): 90%
- pest or weed control at 15.625 g/ha ([4]; 15.625 g ai/ha, read-out: Morningglory, Ivy-leaved damage rating (100=total damage to plant; 0=no damage to plant)): 0%
- pest or weed control at 62.5 g/ha ([4]; 62.5 g ai/ha, 100=total damage to plant, 0=no damage to plant, read-out: Morningglory, Ivy-leaved damage rating): 30%
- pest or weed control at 250 g/ha ([4]; 250 g ai/ha, read-out: Morningglory, Ivy-leaved damage rating (100=total damage to plant; 0=no damage to plant)): 40%
- pest or weed control at 15.625 g/ha ([5]; 15.625 g ai/ha, read-out: Pigweed, Redroot damage rating (100=total damage to plant; 0=no damage to plant)): 0%
- pest or weed control at 62.5 g/ha ([5]; 62.5 g ai/ha, 100=total damage to plant, 0=no damage to plant, read-out: Pigweed, Redroot damage rating): 0%
- pest or weed control at 250 g/ha ([5]; 250 g ai/ha, read-out: Pigweed, Redroot damage rating (100=total damage to plant; 0=no damage to plant)): 50%
- pest or weed control at 15.625 g/ha ([6]; 15.625 g ai/ha, read-out: Velvetleaf damage rating (100=total damage to plant; 0=no damage to plant)): 0%
- pest or weed control at 62.5 g/ha ([6]; 62.5 g ai/ha, 100=total damage to plant, 0=no damage to plant, read-out: Velvetleaf damage rating): 10%
- pest or weed control at 250 g/ha ([6]; 250 g ai/ha, read-out: Velvetleaf damage rating (100=total damage to plant; 0=no damage to plant)): 70%
- pest or weed control at 15.625 g/ha [7, 13]: 60%
- pest or weed control at 62.5 g/ha [7, 14]: 70%
- pest or weed control at 250 g/ha [7, 15]: 80%
- plant injury at 15.625 g/ha [8, 13]: 20%
- plant injury at 62.5 g/ha [8, 14]: 20%
- plant injury at 250 g/ha [8, 15]: 80%
- pest or weed control at 15.625 g/ha [9, 13]: 70%
- pest or weed control at 62.5 g/ha [9, 14]: 80%
- pest or weed control at 250 g/ha [9, 15]: 80%
- pest or weed control at 15.625 g/ha [10, 13]: 10%
- pest or weed control at 62.5 g/ha [10, 14]: 60%
- pest or weed control at 250 g/ha [10, 15]: 70%
- pest or weed control at 15.625 g/ha [11, 13]: 10%
- pest or weed control at 62.5 g/ha [11, 14]: 10%
- pest or weed control at 250 g/ha [11, 15]: 40%
- pest or weed control at 15.625 g/ha [12, 13]: 10%
- pest or weed control at 62.5 g/ha [12, 14]: 20%
- pest or weed control at 250 g/ha [12, 15]: 70%
